Experimental data from patent publication US10294227B2, “Compounds” (UNIVERSITY COURT OF THE UNIVERSITY OF EDINBURGH, priority 2015, dated 2019).
Read-outs that look alike come from different tables or passages of the source.

Legend:
mTOR = mTOR (Homo sapiens (Human), UniProt P42345); experiment: Kinase screening assay (IC50); format: biochemical
PDGFRa = PDGFRa (Homo sapiens (Human), UniProt P16234); experiment: Kinase screening assay (IC50); format: biochemical
[1] = Liver microsome stability; format: in vitro ADME; details: % of unmodified drug after 30 min incubation with liver microsomes
hERG channel [2] = molecular target: T1, hERG channel (Homo sapiens (Human), UniProt Q12809); experiment: Predictor hERG Fluorescence Polarization Assay; format: binding; details: fluorescence polarization kit; read-out: hERG channel inhibition IC50
T1 sequence (Q12809 whole entry): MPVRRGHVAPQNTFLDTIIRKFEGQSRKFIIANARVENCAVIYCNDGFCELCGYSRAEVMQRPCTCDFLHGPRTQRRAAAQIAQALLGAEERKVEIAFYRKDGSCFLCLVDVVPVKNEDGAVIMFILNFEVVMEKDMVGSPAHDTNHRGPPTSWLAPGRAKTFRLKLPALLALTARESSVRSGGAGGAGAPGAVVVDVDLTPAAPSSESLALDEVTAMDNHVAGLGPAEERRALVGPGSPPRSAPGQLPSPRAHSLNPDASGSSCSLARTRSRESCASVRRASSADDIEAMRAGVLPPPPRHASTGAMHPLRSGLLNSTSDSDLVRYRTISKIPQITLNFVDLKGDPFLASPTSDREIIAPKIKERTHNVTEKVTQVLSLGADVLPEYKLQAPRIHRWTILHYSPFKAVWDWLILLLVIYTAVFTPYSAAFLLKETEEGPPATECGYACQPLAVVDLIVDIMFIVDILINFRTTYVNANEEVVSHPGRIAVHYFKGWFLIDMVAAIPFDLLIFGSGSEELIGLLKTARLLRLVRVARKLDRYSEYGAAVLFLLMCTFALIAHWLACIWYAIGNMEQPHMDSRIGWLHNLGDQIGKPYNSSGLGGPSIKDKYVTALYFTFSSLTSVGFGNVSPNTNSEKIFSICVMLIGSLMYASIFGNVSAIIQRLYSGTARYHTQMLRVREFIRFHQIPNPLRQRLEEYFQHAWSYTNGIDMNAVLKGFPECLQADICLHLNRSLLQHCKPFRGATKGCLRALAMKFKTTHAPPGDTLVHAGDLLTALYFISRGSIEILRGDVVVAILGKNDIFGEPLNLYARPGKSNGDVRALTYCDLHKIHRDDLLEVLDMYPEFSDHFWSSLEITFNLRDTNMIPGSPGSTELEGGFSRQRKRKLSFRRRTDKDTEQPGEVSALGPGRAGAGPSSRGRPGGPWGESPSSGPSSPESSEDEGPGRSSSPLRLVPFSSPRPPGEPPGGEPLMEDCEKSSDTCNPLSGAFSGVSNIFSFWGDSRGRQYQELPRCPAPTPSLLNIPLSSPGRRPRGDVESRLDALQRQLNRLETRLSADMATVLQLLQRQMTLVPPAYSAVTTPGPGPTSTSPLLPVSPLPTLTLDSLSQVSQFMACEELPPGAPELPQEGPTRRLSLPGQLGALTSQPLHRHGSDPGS
From the text: These experiments corroborated the safety of the compounds.

CYP1A2 [3] = molecular target: T2, CYP1A2 (Homo sapiens (Human), UniProt P05177); experiment: in vitro
T2 sequence (P05177 whole entry): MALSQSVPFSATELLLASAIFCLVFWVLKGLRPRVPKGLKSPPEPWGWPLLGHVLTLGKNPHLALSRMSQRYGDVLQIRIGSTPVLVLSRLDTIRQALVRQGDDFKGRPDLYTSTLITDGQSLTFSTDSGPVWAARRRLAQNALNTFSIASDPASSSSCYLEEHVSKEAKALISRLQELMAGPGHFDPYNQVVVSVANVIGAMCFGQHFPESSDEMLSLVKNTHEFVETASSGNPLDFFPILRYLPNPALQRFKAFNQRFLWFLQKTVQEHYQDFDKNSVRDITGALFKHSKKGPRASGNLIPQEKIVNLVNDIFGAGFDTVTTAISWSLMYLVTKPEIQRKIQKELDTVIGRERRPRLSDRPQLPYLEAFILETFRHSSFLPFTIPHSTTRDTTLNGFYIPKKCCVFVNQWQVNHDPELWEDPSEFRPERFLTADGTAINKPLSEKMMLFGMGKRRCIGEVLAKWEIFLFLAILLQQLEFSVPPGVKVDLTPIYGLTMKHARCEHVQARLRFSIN

[4] = rat, serum
CYP3A4 = CYP3A4 (Homo sapiens (Human), UniProt P08684); experiment: CYP P450 inhibition
CYP2C9 = CYP2C9 (Homo sapiens (Human), UniProt P11712); experiment: CYP P450 inhibition
CYP2D6 = CYP2D6 (Homo sapiens (Human), UniProt P10635); experiment: CYP P450 inhibition
Chain of CYP2D6 (P10635 whole entry): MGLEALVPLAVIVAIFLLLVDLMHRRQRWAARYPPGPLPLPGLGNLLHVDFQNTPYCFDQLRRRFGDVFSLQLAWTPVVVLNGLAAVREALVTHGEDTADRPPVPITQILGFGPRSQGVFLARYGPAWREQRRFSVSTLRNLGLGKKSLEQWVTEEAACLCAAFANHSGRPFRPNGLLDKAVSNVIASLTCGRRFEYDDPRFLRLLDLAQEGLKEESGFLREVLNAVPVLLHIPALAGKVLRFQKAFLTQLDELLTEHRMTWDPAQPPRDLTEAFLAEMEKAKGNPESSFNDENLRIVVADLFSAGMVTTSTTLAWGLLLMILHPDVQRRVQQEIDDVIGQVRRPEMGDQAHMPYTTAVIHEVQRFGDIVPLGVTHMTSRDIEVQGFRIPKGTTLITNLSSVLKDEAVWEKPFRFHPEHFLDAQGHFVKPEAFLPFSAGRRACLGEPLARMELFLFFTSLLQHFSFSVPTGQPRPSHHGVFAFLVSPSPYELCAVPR

CYP2C19 = CYP2C19 (Homo sapiens (Human), UniProt P33261); experiment: CYP P450 inhibition
[5] = human, serum
KIT = KIT (Homo sapiens (Human), UniProt P10721); experiment: Kinase screening assay (IC50)
Chain of KIT (P10721 26-976): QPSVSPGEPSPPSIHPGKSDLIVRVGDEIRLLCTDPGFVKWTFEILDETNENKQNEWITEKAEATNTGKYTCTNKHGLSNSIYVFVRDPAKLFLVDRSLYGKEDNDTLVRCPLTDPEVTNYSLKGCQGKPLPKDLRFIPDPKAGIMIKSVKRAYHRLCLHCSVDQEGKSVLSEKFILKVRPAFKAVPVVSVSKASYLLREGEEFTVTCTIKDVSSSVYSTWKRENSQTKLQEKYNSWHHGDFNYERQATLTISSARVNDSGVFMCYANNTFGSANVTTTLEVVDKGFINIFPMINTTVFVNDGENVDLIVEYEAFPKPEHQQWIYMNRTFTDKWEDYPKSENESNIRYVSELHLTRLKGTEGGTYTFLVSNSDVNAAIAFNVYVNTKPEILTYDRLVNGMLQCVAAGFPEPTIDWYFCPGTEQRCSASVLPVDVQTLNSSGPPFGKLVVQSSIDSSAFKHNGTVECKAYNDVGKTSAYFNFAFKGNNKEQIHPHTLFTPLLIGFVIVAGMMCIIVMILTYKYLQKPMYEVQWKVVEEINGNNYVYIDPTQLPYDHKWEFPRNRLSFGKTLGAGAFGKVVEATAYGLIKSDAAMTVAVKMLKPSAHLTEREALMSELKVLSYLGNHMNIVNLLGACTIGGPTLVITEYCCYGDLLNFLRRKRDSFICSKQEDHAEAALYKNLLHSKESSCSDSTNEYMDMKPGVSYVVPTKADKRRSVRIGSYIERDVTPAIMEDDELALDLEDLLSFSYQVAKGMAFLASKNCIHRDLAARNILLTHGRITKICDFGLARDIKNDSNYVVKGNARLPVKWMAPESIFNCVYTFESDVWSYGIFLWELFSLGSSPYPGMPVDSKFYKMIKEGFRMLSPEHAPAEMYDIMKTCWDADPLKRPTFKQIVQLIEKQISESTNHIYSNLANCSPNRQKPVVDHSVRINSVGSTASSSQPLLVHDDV

RET = RET (Homo sapiens (Human), UniProt P07949); experiment: Kinase screening assay (IC50)
BLK = BLK (Homo sapiens (Human), UniProt P51451); experiment: Kinase screening assay (IC50)
Chain of BLK (P51451 whole entry): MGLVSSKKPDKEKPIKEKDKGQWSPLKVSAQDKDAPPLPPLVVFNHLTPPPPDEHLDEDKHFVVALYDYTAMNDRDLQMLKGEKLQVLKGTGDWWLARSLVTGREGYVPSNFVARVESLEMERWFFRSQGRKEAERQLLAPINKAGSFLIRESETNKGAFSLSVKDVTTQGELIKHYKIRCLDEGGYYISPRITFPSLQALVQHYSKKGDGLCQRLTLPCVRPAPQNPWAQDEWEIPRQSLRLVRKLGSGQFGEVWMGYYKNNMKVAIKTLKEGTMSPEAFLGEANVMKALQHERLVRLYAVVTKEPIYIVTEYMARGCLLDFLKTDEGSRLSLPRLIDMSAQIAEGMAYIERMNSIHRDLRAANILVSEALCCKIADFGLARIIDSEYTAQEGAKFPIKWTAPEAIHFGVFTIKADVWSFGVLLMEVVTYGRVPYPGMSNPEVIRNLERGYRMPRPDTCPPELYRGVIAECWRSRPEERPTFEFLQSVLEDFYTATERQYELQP

FGR = FGR (Homo sapiens (Human), UniProt P09769); experiment: Kinase screening assay (IC50)
FYN = FYN (Homo sapiens (Human), UniProt P06241); experiment: Kinase screening assay (IC50)
Chain of FYN (P06241 whole entry): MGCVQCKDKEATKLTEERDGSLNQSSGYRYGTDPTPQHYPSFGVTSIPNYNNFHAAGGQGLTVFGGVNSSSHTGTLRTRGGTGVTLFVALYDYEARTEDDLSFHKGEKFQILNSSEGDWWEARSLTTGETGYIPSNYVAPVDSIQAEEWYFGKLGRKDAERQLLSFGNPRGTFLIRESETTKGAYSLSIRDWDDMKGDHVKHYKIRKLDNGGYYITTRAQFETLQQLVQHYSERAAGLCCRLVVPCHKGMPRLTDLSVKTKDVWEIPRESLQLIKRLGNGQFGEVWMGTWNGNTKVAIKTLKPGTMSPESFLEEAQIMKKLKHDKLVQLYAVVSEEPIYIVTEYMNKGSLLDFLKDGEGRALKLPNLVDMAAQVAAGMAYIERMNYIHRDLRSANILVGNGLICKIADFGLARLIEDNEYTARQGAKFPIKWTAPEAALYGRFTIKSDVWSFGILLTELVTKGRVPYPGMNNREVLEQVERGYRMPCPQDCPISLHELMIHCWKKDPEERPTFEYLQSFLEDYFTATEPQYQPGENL

HCK = HCK (Homo sapiens (Human), UniProt P08631); experiment: Kinase screening assay (IC50)
LCK = LCK (Homo sapiens (Human), UniProt P06239); experiment: Kinase screening assay (IC50)
Chain of LCK (P06239 whole entry): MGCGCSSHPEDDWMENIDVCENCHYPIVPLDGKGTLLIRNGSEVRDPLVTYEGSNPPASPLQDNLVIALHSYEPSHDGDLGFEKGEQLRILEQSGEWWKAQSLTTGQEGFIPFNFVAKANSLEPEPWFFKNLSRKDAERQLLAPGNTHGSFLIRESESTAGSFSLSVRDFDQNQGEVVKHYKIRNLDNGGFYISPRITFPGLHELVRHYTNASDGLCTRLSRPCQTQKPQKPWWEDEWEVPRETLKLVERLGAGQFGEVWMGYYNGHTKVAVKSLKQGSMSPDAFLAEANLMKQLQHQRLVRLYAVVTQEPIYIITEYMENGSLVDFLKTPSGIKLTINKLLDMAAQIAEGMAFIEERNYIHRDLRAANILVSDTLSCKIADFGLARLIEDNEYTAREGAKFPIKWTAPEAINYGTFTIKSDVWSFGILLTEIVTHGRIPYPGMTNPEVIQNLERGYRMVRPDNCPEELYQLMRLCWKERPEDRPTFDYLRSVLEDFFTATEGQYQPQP

LYN = LYN (Homo sapiens (Human), UniProt P07948); experiment: Kinase screening assay (IC50)
hERG channel [6] = molecular target: T1, hERG channel; experiment: hERG Safety Assay, Ionworks high-throughput electrophysiology
[7] = Stability in human plasma; format: in vitro ADME; details: % of unmodified drug after 120 min in plasma
[8] = Stability in mouse plasma; format: in vitro ADME; details: % of unmodified drug after 120 min in plasma
[9] = mouse, in vivo
in vivo = details: female, mouse
[10] = PBS, aqueous buffer
Stability in rat plasma = details: % of unmodified drug after 120 min in plasma
FRK/PTK5 = FRK/PTK5 (Homo sapiens (Human), UniProt P42685); experiment: Kinase screening assay (IC50)
CYP1A2 [11] = molecular target: T2, CYP1A2; experiment: CYP P450 inhibition
MCF7 cells = experiment: Cell viability assay (PrestoBlue); format: cell-based; details: Homo sapiens, MCF7, 120 h; cell viability at day 5; read-out: Antiproliferative activity (EC50) MCF7
[12] = test system: SYF fibroblasts (deficient for Src, Yes, and Fyn); experiment: Cell viability assay (PrestoBlue); format: cell-based, murine; details: Mus musculus, Fibroblast, 120 h; cell viability at day 5; read-out: Antiproliferative activity (EC50) SYF (−/− Src)
[13] = molecular target: selection of recombinant kinases; experiment: Kinase screening assay, panel summary; format: biochemical, human; details: 15 kinases of Table 2
[14] = 10 μM ATP, read-out: Target inhibition (IC50) mTOR
[15] = read-out: Kinase Screening (IC50) mTOR
[16] = 10 μM ATP, read-out: Target inhibition (IC50) PDGFRa
[17] = read-out: Kinase Screening (IC50) PDGFRa
[18] = read-out: Kinase Screening (IC50) c-KIT
[19] = read-out: Kinase Screening (IC50) RET
[20] = read-out: Target inhibition (IC50) RET, 10 μM ATP
[21] = read-out: Kinase Screening (IC50) BLK, Src Family
[22] = read-out: Target inhibition (IC50) BLK, 10 μM ATP
[23] = read-out: Kinase Screening (IC50) FGR, Src Family
[24] = read-out: Target inhibition (IC50) FGR, 10 μM ATP
[25] = read-out: Kinase Screening (IC50) FYN, Src Family
[26] = read-out: Target inhibition (IC50) FYN, 10 μM ATP
[27] = read-out: Kinase Screening (IC50) LCK, Src Family
[28] = read-out: Target inhibition (IC50) LCK, 10 μM ATP
[29] = read-out: Kinase Screening (IC50) LYN, Src Family
[30] = read-out: Target inhibition (IC50) LYN, 10 μM ATP
[31] = read-out: Target inhibition (IC50) KIT, 10 μM ATP

inhibition at 10 µM (CYP3A4)	inhibition at 10 µM (CYP2C9)	inhibition at 10 µM (CYP2D6)	inhibition at 10 µM (CYP2C19)	IC50 (KIT)	IC50 (KIT; [18])	IC50 (RET; [19])	IC50 (RET; [20])	Compound	IC50 (mTOR; [14])	IC50 (mTOR; [15])	IC50 (PDGFRa; [16])	IC50 (PDGFRa; [17])	30 min Liver Microsome stability [1]	inhibition at 10 µM (CYP1A2 [3])	fraction unbound [4]	fraction unbound [5]	IC50 (BLK; [21])	IC50 (BLK; [22])	IC50 (FGR; [23])	IC50 (hERG channel [6])	also measured
3.1%	-35.4%	7.4%	26.8%	0.1 to 1 µM	0.1 to 1 µM	> 1 µM	> 1 µM	COc1cc(-c2nn(CCN3CCC(N(C)C)CC3)c3ncnc(N)c23)ccc1NCc1ccccc1 [Compound 533, 3-[4-(benzylamino)-3-methoxy-phenyl]-1-[2-[4-(dimethylamino)-1-piperidyl]ethyl]pyrazolo[3,4-d]pyrimidin-4-amine]	> 1 µM	> 1 µM	> 1 µM	> 1 µM	98.8%	8.3%	0.106	0.118	< 0.01 µM	< 0.01 µM	< 0.01 µM	2.55 µM	IC50 (hERG channel [2]): 10 to 15 µM; IC50 (FGR; [24]): < 0.01 µM; IC50 (FYN; [25]): < 0.01 µM; IC50 (FYN; [26]): < 0.01 µM; IC50 (HCK; read-out: Kinase Screening (IC50) HCK, Src Family): < 0.01 µM; IC50 (HCK; read-out: Target inhibition (IC50) HCK, 10 μM ATP): < 0.01 µM; IC50 (LCK; [27]): < 0.01 µM; IC50 (LCK; [28]): < 0.01 µM; IC50 (LYN; [29]): < 0.01 µM; IC50 (LYN; [30]): < 0.01 µM
-74.6%	-23.1%	31.8%	-5.4%	5.13 µM	> 1 µM	> 1 µM	> 1 µM	COc1cc(-c2nn(CCN3CCC(N(C)C)CC3)c3ncnc(N)c23)ccc1NC(=O)OC(C)(C)C [Compound 506, tert-butyl N-[4-[4-amino-1-[2-[4-(dimethylamino)-1-piperidyl]ethyl]pyrazolo[3,4-d]pyrimidin-3-yl]-2-methoxy-phenyl]carbamate]												18.2 µM	solubility [10]: > 100 mg/mL; inhibition at 10 µM (CYP1A2 [11]): 24.6%; IC50 (KIT; [31]): > 1 µM; IC50 (RET): > 10 µM
								CN(C)C1CCN(CCn2nc(-c3ccc(CC(=O)O)cc3)c3c(N)ncnc32)CC1 [Compound 556, 2-[4-[4-amino-1-[2-[4-(dimethylamino)-1-piperidyl]ethyl]pyrazolo[3,4-d]pyrimidin-3-yl]phenyl]acetic acid]													EC50 (MCF7 cells): > 10 µM; EC50 [12]: > 10 µM; Target inhibition (IC50), remark on the whole panel [13]: No inhibition found

Compound	inhibition at 10 µM (CYP3A4)	inhibition at 10 µM (CYP2C9)	inhibition at 10 µM (CYP2D6)	inhibition at 10 µM (CYP2C19)	IC50 (KIT)	IC50 (KIT; [18])	IC50 (RET; [19])	IC50 (RET; [20])	IC50 (mTOR; [14])	IC50 (mTOR; [15])	IC50 (PDGFRa; [16])	IC50 (PDGFRa; [17])	30 min Liver Microsome stability [1]	inhibition at 10 µM (CYP1A2 [3])	fraction unbound [4]	fraction unbound [5]	IC50 (BLK; [21])	IC50 (BLK; [22])	IC50 (FGR; [23])	IC50 (hERG channel [6])	also measured
COc1cc(-c2nn(CCN3CCC(N(C)C)CC3)c3ncnc(N)c23)ccc1CC(=O)OC(C)(C)C [Compound 565, tert-butyl 2-[4-[4-amino-1-[2-[4-(dimethylamino)-1-piperidyl]ethyl]pyrazolo[3,4-d]pyrimidin-3-yl]-2-methoxy-phenyl]acetate]	5.7%	-35.8%	9.4%	-0.4%		> 1 µM	> 1 µM	> 1 µM	> 1 µM	> 1 µM	> 1 µM	> 1 µM	78.7%	4.3%	0.139	0.177	< 0.01 µM	< 0.01 µM	< 0.01 µM	> 25 µM	Stability in human plasma [7]: 94%; Stability in mouse plasma [8]: 100%; toxic effects in PK study [9]: no toxic effects; bioavailability (in vivo): 52%; half-life (in vivo): 2 h; bioavailability (in vivo; po): 52%; solubility [10]: > 100 mg/mL; Stability in rat plasma (Stability in rat plasma): 93.3%^; IC50 (KIT; [31]): > 1 µM; IC50 (FGR; [24]): < 0.01 µM; IC50 (FRK/PTK5; read-out: Kinase Screening (IC50) FRK, Src Family): < 0.01 µM; IC50 (FRK/PTK5; read-out: Target inhibition (IC50) FRK/PTK5, 10 μM ATP): < 0.01 µM; IC50 (FYN; [25]): < 0.01 µM; IC50 (FYN; [26]): < 0.01 µM; IC50 (LCK; [27]): < 0.01 µM; IC50 (LCK; [28]): < 0.01 µM; IC50 (LYN; [29]): < 0.01 µM; IC50 (LYN; [30]): < 0.01 µM
